Results reported in ChEMBL document CHEMBL4813961, “Antiviral Bafilomycins from a Feces-Inhabiting Streptomyces sp” (J Nat Prod, 2021).
Calls of active or inactive are those of the source. The rule behind the calls is not given here.

Key:
Influenza A virus [1] = assay: Antiviral activity against Influenza A virus (A/Puerto Rico/8/1934(H1N1)) infected in MDCK cells incubated for 48 hrs by MTT assay; format: functional, organism-based
Influenza A virus [2] = assay: Antiviral activity against Influenza A virus (A/Puerto Rico/8/1934(H1N1)) infected in MDCK cells pre-treated with virus for 30 mins followed by cell infection for 1 hr by MTT assay; format: functional, organism-based
[3] = Cytotoxicity against dog MDCK cells incubated for 48 hrs by MTT assay; format: cell-based, Canis lupus familiaris
MDCK = assay: Inhibition of V-ATPase in dog MDCK cells assessed as decrease in fluorescence intensity at 5 uM incubated for 20 mins by acridine orange staining-based fluorescence quenching method (reference value: 100%); format: cell-based; conditions: Canis lupus familiaris
Influenza A virus [4] = assay: Antiviral activity against Influenza A virus (A/Puerto Rico/8/34(H1N1)) infected in MDCK cells assessed as reduction in NP expression level at 0.5 to 1 ng/ml pre-treated with virus for 30 mins followed by cell infection for 1 hr and measured after 24 hrs post infection by indirect immunofluorescence assay; format: functional, organism-based; conditions: A/Puerto Rico/8/1934(H1N1), dose 0.5-1 ng/ml, time 1470.0 min
Influenza A virus [5] = assay: Antiviral activity against Influenza A virus (A/Puerto Rico/8/34(H1N1)) infected in MDCK cells assessed as reduction in HA mRNA level at 1 ng/ml pre-treated with virus for 30 mins followed by cell infection for 1 hr and measured after 24 hrs post infection by SYBR green dye-based qRT-PCR analysis; format: functional, organism-based; conditions: A/Puerto Rico/8/1934(H1N1), time 1470.0 min
Influenza A virus [6] = assay: Antiviral activity against Influenza A virus (A/Puerto Rico/8/34(H1N1)) infected in MDCK cells assessed as reduction in M1 mRNA level at 1 ng/ml pre-treated with virus for 30 mins followed by cell infection for 1 hr and measured after 24 hrs post infection by SYBR green dye-based qRT-PCR analysis; format: functional, organism-based; conditions: A/Puerto Rico/8/1934(H1N1), time 1470.0 min
SARS-CoV-2 [7] = assay: Antiviral activity against SARS-CoV-2 nCoV-2019 BetaCoV/Wuhan/WIV04/2019 infected in Vero E6 cells assessed as S gene expression preincubated with virus for 30 mins followed by cell infection for 1 hr and measured at 24 hrs post infection by qRT-PCR method; format: functional, organism-based; conditions: Severe acute respiratory syndrome coronavirus 2, nCoV-2019 BetaCoV/Wuhan/WIV04/2019, Vero C1008
SARS-CoV-2 [8] = assay: (§1) Antiviral activity against SARS-CoV-2 nCoV-2019 BetaCoV/Wuhan/WIV04/2019 infected in Vero E6 cells assessed as S gene expression preincubated with cells for 1 hr followed by viral addition for 1 hr and measured at 24 hrs post infection by qRT-PCR method; format: functional, organism-based; conditions: Severe acute respiratory syndrome coronavirus 2, nCoV-2019 BetaCoV/Wuhan/WIV04/2019, Vero C1008
SARS-CoV-2 [9] = assay: as §1, with “reduction in NP” for “S gene”, “expression at 0.005 to 0.5 ug/ml” for “expression”, “indirect immunofluorescence assay” for “qRT-PCR method”; format: functional, organism-based; conditions: Severe acute respiratory syndrome coronavirus 2, dose 0.005-0.5 µg/ml, time 26.0 hrs

| SMILES | IC50 (Influenza A virus [1]) | IC50 (Influenza A virus [2]) | CC50 at 48 h [3] | Flu intensity (MDCK) | Activity (Influenza A virus [4]) | Activity (Influenza A virus [5]) | Activity (Influenza A virus [6]) | IC50 (SARS-CoV-2 [7]) | IC50 (SARS-CoV-2 [8]) | Activity (SARS-CoV-2 [9]) |
| --- | --- | --- | --- | --- | --- | --- | --- | --- | --- | --- |
| CCOC(=O)c1c(CSc2ccccc2)n(C)c2cc(Br)c(O)c(CN(C)C)c12 [UMIFENOVIR] | 460 nM | 400 nM | 46400 nM | – | – | – | – | – | – | – |
| CO/C1=C\C(C)=C\[C@@H](C)[C@@H](O)[C@@H](C)C/C(C)=C/C=C/[C@H](OC)[C@@H]([C@@H](C)[C@@H](O)[C@H](C)[C@@]2(O)C[C@@H](O)[C@H](C)[C@@H](C(C)C)O2)OC1=O [BAFILOMYCIN A1] | 580 nM | 0.06 nM | 1410 nM | 85.3% | – | – | – | – | – | – |
| CO/C1=C/C(C)=C/[C@@H](C)[C@H](O)[C@@H](C)C/C(C)=C/C=C/[C@H](OC)[C@@H]([C@@H](C)[C@@H](O)[C@H](C)[C@]2(O)C[C@H](OC)[C@@H](C)[C@H](C(C)C)O2)OC1=O | 140 nM | 0.65 nM | 190 nM | – | – | – | – | – | – | – |
| CO/C1=C/C(C)=C/[C@@H](C)[C@H](O)[C@@H](C)C/C(C)=C/C=C/[C@H](OC)[C@@H]([C@@H](C)[C@@H](O)[C@H](C)[C@]2(OC)C[C@H](OC)[C@@H](C)[C@H](C(C)C)O2)OC1=O | 260 nM | 0.18 nM | 1290 nM | – | – | – | – | – | – | – |
| CO/C1=C/C(C)=C/[C@@H](C)[C@H](O)[C@@H](C)C/C(C)=C/C=C/[C@H](OC)[C@@H]([C@@H](C)[C@@H](O)[C@H](C)C(=O)/C=C/[C@H](C)[C@H](O)C(C)C)OC1=O | 30 nM | 0.1 nM | 910 nM | 82.7% | – | – | – | – | – | – |
| CO/C1=C/C(C)=C/[C@@H](C)[C@H](O)[C@@H](C)C/C(C)=C/C=C/[C@H](OC)[C@@H]([C@@H](C)[C@@H](O)[C@H](C)[C@]2(OC)C[C@H](O)[C@@H](C)[C@H](C(C)C)O2)OC1=O | 170 nM | 0.11 nM | 1710 nM | 88.7% | – | – | – | – | – | – |
| CO/C1=C/C(C)=C/[C@@H](C)[C@H](O)[C@@H](C)C/C(C)=C/C=C/[C@H](OC)[C@@H]([C@@H](C)[C@@H](O)[C@H](C)[C@]2(OC)C[C@H](OC(=O)/C=C/C(=O)NC3=C(O)CCC3=O)[C@@H](C)[C@H](C(C)C)O2)OC1=O | 50 nM | 0.1 nM | 240 nM | 73.6% | Active | Active | Active | 8.32 nM | 5.11 nM | Active |
| CO/C1=C/C(C)=C/[C@@H](C)[C@H](O)[C@@H](C)C/C(C)=C/C=C/[C@H](OC)[C@@H]([C@@H](C)[C@@H](O)[C@H](C)[C@]2(O)C[C@H](OC(=O)/C=C/C(=O)NC3=C(O)CCC3=O)[C@@H](C)[C@H](C(C)C)O2)OC1=O | 100 nM | 0.17 nM | 1310 nM | 78.4% | Active | Active | Active | – | – | – |
| CO/C1=C/C(C)=C/[C@@H](C)[C@H](O)[C@@H](C)C/C(C)=C/C=C/[C@H](OC)[C@@H]([C@@H](C)[C@@H](O)[C@H](C)C(=O)/C=C/C(C)=C/C(C)C)OC1=O | 460 nM | 2.13 nM | 3100 nM | 93.5% | – | – | – | – | – | – |
